Legend:
RPMI-8226 = assay: Single dose tumor cell growth inhibition, Leukemia RPMI-8226; assay type: cell-based; settings: RPMI-8226, single dose 10 μM
Text: (§1) DHL is cytotoxic to various leukemia, colon cancer, CNS cancer and prostate cancer cell lines.

TUR = assay: Cytotoxicity, annexin V/7-AAD viability by flow cytometry, TUR; assay type: cell-based, human; settings: 48 hours, drug range tested 1.25-160 μM
Protocol: (§2) In order to assess the structure-activity relationship of DHL and its derivatives, DHL and its derivatives were evaluated against eight human leukemia cell lines. Cell lines were cultured in Iscove's Modified Dulbecco's Medium (IMDM) supplemented with 10%˜20% fetal bovine serum (FBS) according to culture conditions indicated by ATCC and 1% penicillin/streptomycin (Pen/Strep) at 37° C. and 5% CO2. The cells were seeded into 96-well plates and kept at a concentration of 0.5 million cells per mL. The samples were treated with DHL, Leucodine, DHL-Morpholine, DHL-Proline, DHL-Piperidine, and PTL at varying concentrations in triplicates. Cell viability was determined after incubating for 48 hours. The cells were stained with annexin V-fluorescein isothiocyanate or phycoeritrine (FITC/PE) and 7-aminoactinomycin (7-AAD) to detect phosphatidylserine exposition and cell permeability, respectively. At least 50,000 events were recorded per condition on either an LSR-II or LSR-Fortessa flow cytometer (BD Biosciences). Data analysis was conducted using FlowJo 9.6 software for Mac OS X (TreeStar). Cells that were negative for annexin V and 7-AAD were scored as viable.

HSPA1A = assay: Quantitative PCR of HSPA1A in MOLM-13 or MV-411 cells; assay type: cell-based; settings: 20 μM, 6 hours, MOLM-13 and MV-411 cells
Protocol: (FIG. 8A) Graphical representation of the fold changes of HMOX-1 in MOLM-13 cells. Cells were seeded at 0.5 million cells per milliliter and subject to 20 μM of DHL, leucodine, DHL-proline, DHL-piperidine, DHL-morpholine, or parthenolide for 6 hours. RNA was then extracted and quantitative PCR was performed. Experiments were performed in triplicates. Lines represent mean for each specimen, with error bars representing the SD. Fold change was calculated by the delta-delta Ct method. […] (FIG. 8D) Immunoblot for MOLM-13 cells after 6 hours of treatment with either DHL or PTL with 10 or 20 μM. Blot was probed for phospho-p65 and p65 antibodies. Total p65 is shown as the loading control.
(FIG. 9A) Graphical representation of the fold changes of HMOX-1 in MV-411 cells. Cells were seeded at 0.5 million cells per milliliter and subject to 20 μM of DHL, leucodine, DHL-proline, DHL-piperidine, DHL-morpholine, or parthenolide for 6 hours. RNA was then extracted and quantitative PCR was performed. Experiments were performed in triplicates. Lines represent mean for each specimen, with error bars representing the SD. Fold change was calculated by the delta-delta Ct method. (FIG. 9B) Graphical representation of the fold changes of HSPA1A in MV-411 cells, with the same experimental setup and analysis as FIG. […].
To compare these intracellular effects of DHL and its derivatives, quantitative PCR was performed (FIG. 8 and FIG. 9). MOLM-13 or MV-411 cells were seeded at 0.5 million cells per milliliter. Cells were treated for 6 hours with 20 μM of DHL, Leucodine, DHL-Morpholine, DHL-Proline, DHL-Piperidine or PTL, and then collected. Total RNA was extracted using the Qiashredder and Qiagen Rneasy Mini kits. […] Quantitative PCR was performed using probes for HMOX-1 (Hs01110251_m1), HSPA1A (Hs00359163_s1), and NFKB1 (Hs00765730_m1). […] Single-plex real-time PCR was performed in triplicates in a StepOne plus RealTime PCR system and analyzed with the StepOne Software. Fold change was calculated using the 2-DDCT method described by Livak and Schmittgen.

PC-3 = assay: Single dose tumor cell growth inhibition, Prostate Cancer PC-3; assay type: cell-based, human; settings: PC-3, single dose 10 μM
Text: as §1

MOLM-13 = assay: Cytotoxicity, annexin V/7-AAD viability by flow cytometry, MOLM-13; assay type: cell-based, human; settings: MOLM-13, 48 hours, drug range tested 1.25-160 μM
Protocol: as §2

U251 = assay: Single dose tumor cell growth inhibition, CNS Cancer U251; assay type: cell-based, human; settings: U251, single dose 10 μM
Text: as §1

Kasumi-1 = assay: Cytotoxicity, annexin V/7-AAD viability by flow cytometry, Kasumi-1; assay type: cell-based, human; settings: Kasumi-1, 48 hours, drug range tested 1.25-160 μM
Protocol: as §2

K-562 = assay: Single dose tumor cell growth inhibition, Leukemia K-562; assay type: cell-based; settings: K-562, single dose 10 μM
Text: as §1

[1] = system: normal bone marrow and peripheral blood mononuclear cells; settings: 20 μM, 48 hours, AML n=8 vs normal n=4, Mann-Whitney p=0.004
Protocol: as §2, with “The” for “In order to assess the structure-activity relationship of DHL and its derivatives, DHL and its derivatives were evaluated against eight human leukemia cell lines. Cell lines were cultured in Iscove's Modified Dulbecco's Medium (IMDM) supplemented with 10%˜20% fetal bovine serum (FBS) according to culture conditions indicated by ATCC and 1% penicillin/streptomycin (Pen/Strep) at 37° C. and 5% CO2. The”

NCI-H460 = assay: Single dose tumor cell growth inhibition, Non-Small Cell Lung Cancer NCI-H460; assay type: cell-based; settings: NCI-H460, single dose 10 μM
Text: as §1

DU-145 = assay: Single dose tumor cell growth inhibition, Prostate Cancer DU-145; assay type: cell-based, human; settings: DU-145, single dose 10 μM
Text: as §1

HL-60 = assay: Cytotoxicity, annexin V/7-AAD viability by flow cytometry, HL-60; assay type: cell-based, human; settings: HL-60, 48 hours, drug range tested 1.25-160 μM
Protocol: as §2

MV4-11 = assay: Cytotoxicity, annexin V/7-AAD viability by flow cytometry, MV4-11; assay type: cell-based, human; settings: MV4-11, 48 hours, drug range tested 1.25-160 μM
Protocol: as §2

U-937 = assay: Cytotoxicity, annexin V/7-AAD viability by flow cytometry, U-937; assay type: cell-based, human; settings: U-937, 48 hours, drug range tested 1.25-160 μM
Protocol: as §2

CCRF-CEM = assay: Single dose tumor cell growth inhibition, Leukemia CCRF-CEM; assay type: cell-based; settings: single dose 10 μM
Text: as §1

SMILES: C=C1C(=O)O[C@@H]2[C@H]3C(C)=CC(=O)C3=C(C)CC[C@@H]12 [DHL, dehydroleucodine]
- Percent inhibition (RPMI-8226): 31.7%
- LD50 (TUR): 12.18 µM
- HSPA1A expression, fold change (HSPA1A): upregulated
- Percent inhibition (PC-3): 38.6%
- LD50 (MOLM-13): 12.59 µM
- Percent inhibition (U251): 30.0%
- LD50 (Kasumi-1): 12.92 µM
- Percent inhibition (K-562): 42.0%
- potency to AML cell lines versus normal mononuclear cells [1]: significantly more potent to the AML cell lines
- Percent inhibition (NCI-H460): 0.0%
- Percent inhibition (DU-145): 44.0%
- LD50 (HL-60): 14.13 µM
- LD50 (MV4-11): 5.02 µM
- LD50 (U-937): 18.95 µM
- Percent inhibition (CCRF-CEM): 44.9%

From patent US11059800B2, “Dehydroleucodine derivatives and uses thereof” (Bioventures, LLC, priority 2013, dated 2021)
